Experimental findings from EPA's CvTdb concentration-time database are described below.

The subject of data set [1] is Rat. Nature of the data set: concentration in brain after dosing. The conditions noted are these: 6 h; dosed: Fluorotelomer alcohol 8+2; 24 mg/kg; oral; Male; Harlan Sprague Dawley.
In data set [2] the test system is Rat. Nature of the data set: concentration in liver after dosing. To be noted: 0.5 h; dosed: Fluorotelomer alcohol 8+2; 24 mg/kg; oral; Male; Harlan Sprague Dawley.
Data set [3] concerns Rat. Nature of the data set: concentration in brain after dosing. The conditions noted are these: 6 h; dosed: Fluorotelomer alcohol 8+2; 24 mg/kg; oral; Male; Harlan Sprague Dawley. This is another data set of the same source.
Data set [4] relates to Rat. Nature of the data set: concentration in plasma after dosing. The conditions noted are these: dosed: Fluorotelomer alcohol 8+2, 12 mg/kg, oral, Male, Harlan Sprague Dawley.
Data set [5] relates to Rat. Put plainly: concentration in plasma after dosing. To be noted: dosed: Fluorotelomer alcohol 8+2, 40 mg/kg, iv, Female, Harlan Sprague-Dawley.
Data set [6] has as its system Rat. Put plainly: concentration in plasma after dosing. The conditions noted are these: dosed: Fluorotelomer alcohol 8+2, 40 mg/kg, iv, Male, F344.
The subject of data set [7] is Rat. Nature of the data set: concentration in plasma after dosing. To be noted: dosed: Fluorotelomer alcohol 8+2, 12 mg/kg, iv, Male, F344.
For data set [8], the system named is Rat. Put plainly: concentration in kidney after dosing. To be noted: 3 h; dosed: Fluorotelomer alcohol 8+2; 80 mg/kg; oral; Female; Harlan Sprague Dawley.
Data set [9] relates to Rat. Nature of the data set: concentration in plasma after dosing. To be noted: dosed: Fluorotelomer alcohol 8+2, 12 mg/kg, iv, Male, F344. This is another data set of the same source.
For data set [10], the system named is Rat. Nature of the data set: concentration in plasma after dosing. The conditions noted are these: 2 h; dosed: Wyeth-14643; 1.0 mg/kg; oral; Male; Sprague-Dawley.
Data set [11] has as its system Rat. Nature of the data set: concentration in plasma after dosing. To be noted: 2 h; dosed: Wyeth-14643; 2.0 mg/kg; oral; Male; Sprague-Dawley.
Data set [12] concerns Rat. Put plainly: concentration in plasma after dosing. The conditions noted are these: 0.25 h; dosed: Di-n-butyl phthalate; 100 mg/kg; oral; Male; Sprague-Dawley.
Data set [13] concerns Rat. Put plainly: concentration in plasma after dosing. The conditions noted are these: 20 min; dosed: Di-n-butyl phthalate; 20 mg/kg; iv; Male; Sprague-Dawley.
In data set [14] the test system is Rat. Nature of the data set: concentration in plasma after dosing. The conditions noted are these: 5 min; dosed: dichloroacetic acid; 10 mg/kg; iv; Male; F344.
The subject of data set [15] is Rat. Put plainly: concentration in plasma after dosing. The conditions noted are these: dosed: dichloroacetic acid, 40 mg/kg, oral, Female, Harlan Sprague Dawley.
Data set [16] deals with Rat. Put plainly: concentration in plasma after dosing. The conditions noted are these: dosed: dichloroacetic acid, 40 mg/kg, oral, Female, Harlan Sprague Dawley. The source holds these as a separate data set.
Data set [17] concerns Rat. Put plainly: concentration in plasma after dosing. The conditions noted are these: dosed: Perfluorodecanoic acid, 2 mg/kg, iv, Male, F344.
Data set [18] relates to Rat. Put plainly: concentration in plasma after dosing. To be noted: dosed: Perfluorodecanoic acid, 2 mg/kg, iv, Male, F344. The source holds these as a separate data set.
Data set [19] deals with Rat. Put plainly: concentration in plasma after dosing. To be noted: dosed: Perfluorodecanoic acid, 2 mg/kg, iv, Male, F344. The source holds these as a separate data set.
The test system of data set [20] is Rat. Nature of the data set: concentration in liver after dosing. To be noted: 6.667 h; dosed: Thiodiglycolic Acid; 20 mg/kg; iv; Female; Harlan Sprague Dawley.
The test system of data set [21] is Rat. Nature of the data set: concentration in liver after dosing. To be noted: 6.667 h; dosed: Thiodiglycolic Acid; 20 mg/kg; iv; Female; Harlan Sprague Dawley. The source holds these as a separate data set.
Data set [22] concerns Rat. Put plainly: concentration in liver after dosing. To be noted: 10 min; dosed: Thiodiglycolic Acid; 20 mg/kg; iv; Female; Harlan Sprague Dawley.
In data set [23] the test system is Rat. Nature of the data set: concentration in liver after dosing. To be noted: 2 h; dosed: Thiodiglycolic Acid; 20 mg/kg; iv; Male; Harlan Sprague Dawley.
The test system of data set [24] is Rat. Put plainly: concentration in thymus after dosing. The conditions noted are these: 2 h; dosed: Thiodiglycolic Acid; 20 mg/kg; iv; Male; Harlan Sprague Dawley.
The test system of data set [25] is Rat. Nature of the data set: concentration in thymus after dosing. The conditions noted are these: 5.333 h; dosed: Thiodiglycolic Acid; 20 mg/kg; iv; Male; Harlan Sprague Dawley.
The subject of data set [26] is Rat. Put plainly: concentration in thymus after dosing. The conditions noted are these: 6.667 h; dosed: Thiodiglycolic Acid; 20 mg/kg; iv; Female; Harlan Sprague Dawley.
The test system of data set [27] is Rat. Nature of the data set: concentration in plasma after dosing. The conditions noted are these: 2 h; dosed: Thiodiglycolic Acid; 20 mg/kg; iv; Male; Harlan Sprague Dawley.
For data set [28], the system named is Rat. Nature of the data set: concentration in plasma after dosing. The conditions noted are these: 6 h; dosed: Primidone; 30 mg/kg; oral; Female; F344.
The test system of data set [29] is Rat. Put plainly: concentration in liver after dosing. The conditions noted are these: 40 min; dosed: Bis 2-Chloroethoxy Methane; 20 mg/kg; iv; Female; F344.
The test system of data set [30] is Rat. Put plainly: concentration in heart after dosing. To be noted: 1 h; dosed: Bis 2-Chloroethoxy Methane; 20 mg/kg; iv; Male; F344.
Data set [31] has as its system Rat. Put plainly: concentration in heart after dosing. The conditions noted are these: 2 h; dosed: Bis 2-Chloroethoxy Methane; 20 mg/kg; iv; Male; F344.
Data set [32] deals with Rat. Nature of the data set: concentration in plasma after dosing. To be noted: 1 h; dosed: Bis 2-Chloroethoxy Methane; 20 mg/kg; iv; Female; F344.
Data set [33] concerns Rat. Nature of the data set: concentration in plasma after dosing. To be noted: 3 h; dosed: Bis 2-Chloroethoxy Methane; 40 mg/kg; iv; Male; Harlan Sprague Dawley.
Data set [34] has as its system Rat. Nature of the data set: concentration in plasma after dosing. The conditions noted are these: 40 min; dosed: Bis 2-Chloroethoxy Methane; 20 mg/kg; iv; Male; F344.
In data set [35] the test system is Rat. Nature of the data set: concentration in thymus after dosing. To be noted: 2 h; dosed: Bis 2-Chloroethoxy Methane; 20 mg/kg; iv; Female; F344.
The subject of data set [36] is Rat. Nature of the data set: concentration in thymus after dosing. The conditions noted are these: 8 h; dosed: Bis 2-Chloroethoxy Methane; 20 mg/kg; iv; Female; Harlan Sprague-Dawley.
Data set [37] concerns Rat. Put plainly: concentration in thymus after dosing. The conditions noted are these: 40 min; dosed: Bis 2-Chloroethoxy Methane; 20 mg/kg; iv; Male; F344.
The subject of data set [38] is Rat. Nature of the data set: concentration in plasma after dosing. The conditions noted are these: 3 h; dosed: Bis 2-Chloroethoxy Methane; 20 mg/kg; iv; Female; F344.
Data set [39] relates to Rat. Put plainly: concentration in thymus after dosing. The conditions noted are these: 20 min; dosed: Bis 2-Chloroethoxy Methane; 20 mg/kg; iv; Female; F344.

Turning to `OCCC(F)(F)C(F)(F)C(F)(F)C(F)(F)C(F)(F)C(F)(F)C(F)(F)C(F)(F)F` [Fluorotelomer alcohol 8+2], the concentration in brain in the data set with Rat [1] was 323 ng/g; in the data set with Rat [3] it was 544 ng/g. Besides, in the data set with Rat [2], the concentration in liver turned out to be 7210 ng/g. For the same compound, the concentration in plasma in the data set with Rat [4] (5 min) came to 396 ng/mL; with Rat [4] (3 h), 196 ng/mL; in the data set with Rat [5] (1 h), 3650 ng/mL; in the data set with Rat [5] (24 h) it was 26.8 ng/mL; in the data set on Rat [6] (0.25 h), 14200 ng/mL; with Rat [6] (6 h), 186 ng/mL. The concentration in plasma came to 662 ng/mL in the data set with Rat [7] (1 h), 38.1 ng/mL in the data set with Rat [7] (6 h), 1410 ng/mL in the data set with Rat [9] (0.5 h) and 26.1 ng/mL with Rat [9] (9 h). The concentration in kidney with Rat [8] was found to be 4360 ng/g.

In the case of `Cc1cccc(Nc2cc(Cl)nc(SCC(=O)O)n2)c1C`, the concentration in plasma with Rat [10] is 266 ng/mL; in the data set with Rat [11], 925 ng/mL.

Regarding `CCCCOC(=O)c1ccccc1C(=O)O` [Mono-n-butyl phthalate], the concentration in plasma worked out at 13200 ng/mL in the data set on Rat [12] and 21300 ng/mL in the data set with Rat [13].

For the compound `O=C(O)C(Cl)Cl` [dichloroacetic acid], the concentration in plasma in the data set on Rat [14] stood at 15100 ng/mL; with Rat [15] (2 min), 704 ng/mL; in the data set with Rat [15] (1 h), 7020 ng/mL; in the data set on Rat [16] (5 min) it was 5140 ng/mL; with Rat [16] (1.25 h), 4620 ng/mL.

For the compound `O=C(O)C(F)(F)C(F)(F)C(F)(F)C(F)(F)C(F)(F)C(F)(F)C(F)(F)C(F)(F)C(F)(F)F` [Perfluorodecanoic acid], the concentration in plasma worked out at 7330 ng/mL in the data set on Rat [17] (5 min); 3130 ng/mL in the data set on Rat [17] (192 h); 200 ng/mL in the data set on Rat [17] (2520 h); 7460 ng/mL in the data set with Rat [18] (5 min); 3420 ng/mL in the data set on Rat [18] (192 h); 283 ng/mL in the data set on Rat [18] (2520 h). Also, the values for the concentration in plasma in the data set on Rat [19] (1 h), with Rat [19] (528 h) and in the data set on Rat [19] (3360 h) were 6010 ng/mL, 3220 ng/mL and 204 ng/mL, respectively.

In the case of `O=C(O)CSCC(=O)O` [Thiodiglycolic Acid], the concentration in liver was 17000 ng/g in the data set with Rat [20], 2190 ng/g in the data set on Rat [21], 70700 ng/g in the data set with Rat [22] and 80300 ng/g in the data set with Rat [23]. Moreover, the concentration in thymus in the data set on Rat [24] amounted to 2120 ng/g; with Rat [25], 471 ng/g; with Rat [26], 245 ng/g. In the data set with Rat [27], this compound displayed a concentration in plasma of 934 ng/mL.

`CCC1(c2ccccc2)C(=O)NC(=O)NC1=O` [Phenobarbital] had a concentration in plasma with Rat [28] of 990 ng/mL.

Regarding `ClCCOCOCCCl` [Bis 2-Chloroethoxy Methane], the concentration in liver in the data set on Rat [29] turned out to be 734 ng/g. Besides, the concentration in heart in the data set with Rat [30] was 2450 ng/g; with Rat [31], 450 ng/g. In addition, the concentration in plasma in the data set with Rat [32] is 1240 ng/mL; with Rat [33] it was 362 ng/mL; in the data set on Rat [34] it was 1930 ng/mL; in the data set with Rat [38] it was 65.2 ng/mL. Moreover, the concentration in thymus in the data set with Rat [35] was found to be 264 ng/g; in the data set on Rat [36], 13.2 ng/g; with Rat [37], 4530 ng/g; in the data set on Rat [39], 26100 ng/g.
